Assay results as given in ChEMBL document CHEMBL2434896, “Carbonic anhydrase inhibitors. Synthesis of heterocyclic 4-substituted pyridine-3-sulfonamide derivatives and their inhibition of the human cytosolic isozymes I and II and transmembrane tumor-associated isozymes IX and XII” (Eur J Med Chem, 2013).
pKi: −log10 of the molar value. Active and inactive are the calls of the source. The calls are words filed in the database; no cut-off is given here.

Tests used:
UACC-257 = experiment: Growth inhibition of human UACC257 cells at 10 uM after 48 hrs by sulforhodamine B assay; type: functional
SF-539 = experiment: Growth inhibition of human SF539 cells at 10 uM after 48 hrs by sulforhodamine B assay; type: functional
DU-145 = experiment: Growth inhibition of human DU145 cells at 10 uM after 48 hrs by sulforhodamine B assay; type: functional
T47D = experiment: Growth inhibition of human T47D cells at 10 uM after 48 hrs by sulforhodamine B assay; type: functional
HCT-116 = experiment: Growth inhibition of human HCT116 cells at 10 uM after 48 hrs by sulforhodamine B assay; type: functional
SR = experiment: Growth inhibition of human SR cells at 10 uM after 48 hrs by sulforhodamine B assay; type: functional; conditions: read-out: GI
MOLT-4 = experiment: Growth inhibition of human MOLT4 cells at 10 uM after 48 hrs by sulforhodamine B assay; type: functional; conditions: MOLT-4, 48 h, read-out: GI
SW-620 = experiment: Growth inhibition of human SW620 cells at 10 uM after 48 hrs by sulforhodamine B assay; type: functional
ACHN = experiment: Growth inhibition of human ACHN cells at 10 uM after 48 hrs by sulforhodamine B assay; type: functional
KM12 = experiment: Growth inhibition of human KM12 cells at 10 uM after 48 hrs by sulforhodamine B assay; type: functional
SF-295 = experiment: Growth inhibition of human SF295 cells at 10 uM after 48 hrs by sulforhodamine B assay; type: functional
COLO 205 = experiment: Growth inhibition of human COLO205 cells at 10 uM after 48 hrs by sulforhodamine B assay; type: functional
SK-MEL-2 = experiment: Growth inhibition of human SK-MEL-2 cells at 10 uM after 48 hrs by sulforhodamine B assay; type: functional
HL-60(TB) = experiment: Growth inhibition of human HL-60(TB) cells at 10 uM after 48 hrs by sulforhodamine B assay; type: functional; conditions: HL-60, 48 h, read-out: GI
SK-MEL-5 = experiment: Growth inhibition of human SK-MEL-5 cells at 10 uM after 48 hrs by sulforhodamine B assay; type: functional
CCRF-CEM = experiment: Growth inhibition of human CCRF-CEM cells at 10 uM after 48 hrs by sulforhodamine B assay; type: functional; conditions: read-out: GI
TK-10 = experiment: Growth inhibition of human TK10 cells at 10 uM after 48 hrs by sulforhodamine B assay; type: functional
Carbonic anhydrase 9 = Carbonic anhydrase 9 (Homo sapiens, UniProt Q16790); experiment: Inhibition of human carbonic anhydrase 9 after 15 mins by stopped flow CO2 hydration assay
NCI-H460 = experiment: Growth inhibition of human NCI-H460 cells at 10 uM after 48 hrs by sulforhodamine B assay; type: functional
MDA-MB-468 = experiment: Growth inhibition of human MDA-MB-468 cells at 10 uM after 48 hrs by sulforhodamine B assay; type: functional
HOP-62 = experiment: Growth inhibition of human HOP62 cells at 10 uM after 48 hrs by sulforhodamine B assay; type: functional
MDA-MB-435 = experiment: Growth inhibition of human MDA-MB-435 cells at 10 uM after 48 hrs by sulforhodamine B assay; type: functional
OVCAR-8 = experiment: Growth inhibition of human OVCAR8 cells at 10 uM after 48 hrs by sulforhodamine B assay; type: functional
OVCAR-5 = experiment: Growth inhibition of human OVCAR5 cells at 10 uM after 48 hrs by sulforhodamine B assay; type: functional
SF-268 = experiment: Growth inhibition of human SF268 cells at 10 uM after 48 hrs by sulforhodamine B assay; type: functional
786-0 = experiment: Growth inhibition of human 786-0 cells at 10 uM after 48 hrs by sulforhodamine B assay; type: functional
EKVX = experiment: Growth inhibition of human EKVX cells at 10 uM after 48 hrs by sulforhodamine B assay; type: functional
RXF 393 = experiment: Growth inhibition of human RXF393 cells at 10 uM after 48 hrs by sulforhodamine B assay; type: functional
NCI-H522 = experiment: Growth inhibition of human NCI-H522 cells at 10 uM after 48 hrs by sulforhodamine B assay; type: functional; conditions: NCI-H522, 48 h, read-out: GI
M14 = experiment: Growth inhibition of human M14 cells at 10 uM after 48 hrs by sulforhodamine B assay; type: functional
HCT-15 = experiment: Growth inhibition of human HCT15 cells at 10 uM after 48 hrs by sulforhodamine B assay; type: functional
CAKI-1 = experiment: Growth inhibition of human CAKI-1 cells at 10 uM after 48 hrs by sulforhodamine B assay; type: functional
RPMI-8226 = experiment: Growth inhibition of human RPMI8226 cells at 10 uM after 48 hrs by sulforhodamine B assay; type: functional
A549 = experiment: Growth inhibition of human A549/ATCC cells at 10 uM after 48 hrs by sulforhodamine B assay; type: functional
UACC-62 = experiment: Growth inhibition of human UACC62 cells at 10 uM after 48 hrs by sulforhodamine B assay; type: functional; conditions: UACC-62, 48 h, read-out: GI
SK-OV-3 = experiment: Growth inhibition of human SKOV3 cells at 10 uM after 48 hrs by sulforhodamine B assay; type: functional
SN12C = experiment: Growth inhibition of human SN12C cells at 10 uM after 48 hrs by sulforhodamine B assay; type: functional
U-251 = experiment: Growth inhibition of human U251 cells at 10 uM after 48 hrs by sulforhodamine B assay; type: functional; conditions: U-251, 48 h, read-out: GI
OVCAR-3 = experiment: Growth inhibition of human OVCAR3 cells at 10 uM after 48 hrs by sulforhodamine B assay; type: functional
MCF7 = experiment: Growth inhibition of human MCF7 cells at 10 uM after 48 hrs by sulforhodamine B assay; type: functional
BT-549 = experiment: Growth inhibition of human BT549 cells at 10 uM after 48 hrs by sulforhodamine B assay; type: functional
[1] = (§1) Growth inhibition of human Hs 578T cells at 10 uM after 48 hrs by sulforhodamine B assay; type: functional; conditions: read-out: GI
NCI-H226 = experiment: Growth inhibition of human NCI-H226 cells at 10 uM after 48 hrs by sulforhodamine B assay; type: functional
SNB-75 = experiment: Growth inhibition of human SNB75 cells at 10 uM after 48 hrs by sulforhodamine B assay; type: functional; conditions: SNB-75, 48 h, read-out: GI
SNB-19 = experiment: Growth inhibition of human SNB19 cells at 10 uM after 48 hrs by sulforhodamine B assay; type: functional
MDA-MB-231 = experiment: Growth inhibition of human MDA-MB-231 cells at 10 uM after 48 hrs by sulforhodamine B assay; type: functional
SK-MEL-28 = experiment: Growth inhibition of human SK-MEL-28 cells at 10 uM after 48 hrs by sulforhodamine B assay; type: functional, cell-based
HT-29 = experiment: Growth inhibition of human HT-29 cells at 10 uM after 48 hrs by sulforhodamine B assay; type: functional
HOP-92 = experiment: Growth inhibition of human HOP92 cells at 10 uM after 48 hrs by sulforhodamine B assay; type: functional; conditions: HOP-92, 48 h, read-out: GI
LOX IMVI = experiment: Growth inhibition of human LOXIMVI cells at 10 uM after 48 hrs by sulforhodamine B assay; type: functional
NCI-H23 = experiment: Growth inhibition of human NCI-H23 cells at 10 uM after 48 hrs by sulforhodamine B assay; type: functional
NCI/ADR-RES = experiment: Growth inhibition of human NCI-ADR-RES cells at 10 uM after 48 hrs by sulforhodamine B assay; type: functional
[2] = Growth inhibition of human HCC2998 cells at 10 uM after 48 hrs by sulforhodamine B assay; type: functional; conditions: HCC 2998, 48 h, read-out: GI
Hs-578T = experiment: as §1; type: functional

## Cc1nn(-c2ccncc2S(N)(=O)=O)c(C)c1C
UACC-257
  growth inhibition (GI): inactive
SF-539
  growth inhibition (GI): inactive
DU-145
  growth inhibition (GI): inactive
T47D
  growth inhibition (GI): inactive
HCT-116
  growth inhibition (GI): inactive
SR
  inhibition of growth at 10 µM: 16%
MOLT-4
  inhibition of growth at 10 µM: 5%
SW-620; SW-620, 48 h, read-out: GI
  inhibition of growth at 10 µM: 12%
ACHN
  growth inhibition (GI): inactive
KM12
  growth inhibition (GI): inactive
SF-295
  growth inhibition (GI): inactive
COLO 205
  growth inhibition (GI): inactive
SK-MEL-2
  growth inhibition (GI): inactive
HL-60(TB)
  inhibition of growth at 10 µM: 9%
SK-MEL-5; SK-MEL-5, 48 h, read-out: GI
  inhibition of growth at 10 µM: 3%
CCRF-CEM
  inhibition of growth at 10 µM: 6%
TK-10
  growth inhibition (GI): inactive
Carbonic anhydrase 9
  pKi: 7.64
NCI-H460
  growth inhibition (GI): inactive
MDA-MB-468
  growth inhibition (GI): inactive
HOP-62
  growth inhibition (GI): inactive
MDA-MB-435
  growth inhibition (GI): inactive
OVCAR-8
  growth inhibition (GI): inactive
OVCAR-5
  growth inhibition (GI): inactive
SF-268
  growth inhibition (GI): inactive
786-0
  growth inhibition (GI): inactive
EKVX
  growth inhibition (GI): inactive
RXF 393
  growth inhibition (GI): inactive
NCI-H522
  inhibition of growth at 10 µM: 3%
M14; M14, 48 h, read-out: GI
  inhibition of growth at 10 µM: 2%
HCT-15
  growth inhibition (GI): inactive
CAKI-1
  growth inhibition (GI): inactive
RPMI-8226
  growth inhibition (GI): inactive
A549
  growth inhibition (GI): inactive
UACC-62
  inhibition of growth at 10 µM: 3%
SK-OV-3
  growth inhibition (GI): inactive
SN12C; read-out: GI
  inhibition of growth at 10 µM: 9%
U-251
  inhibition of growth at 10 µM: 1%
OVCAR-3
  growth inhibition (GI): inactive
MCF7; MCF7, 48 h, read-out: GI
  inhibition of growth at 10 µM: 4%
BT-549; BT-549, 48 h, read-out: GI
  inhibition of growth at 10 µM: 4%
[1]
  inhibition of growth at 10 µM: 20%
NCI-H226
  growth inhibition (GI): inactive
SNB-75
  inhibition of growth at 10 µM: 6%
SNB-19; SNB-19, 48 h, read-out: GI
  inhibition of growth at 10 µM: 1%
MDA-MB-231
  growth inhibition (GI): inactive
SK-MEL-28
  growth inhibition (GI): inactive
HT-29
  growth inhibition (GI): inactive
HOP-92
  inhibition of growth at 10 µM: 25%

## CSc1nc(N)n(-c2ccncc2S(N)(=O)=O)n1
UACC-257; UACC-257, 48 h, read-out: GI
  inhibition of growth at 10 µM: 7%
SF-539
  growth inhibition (GI): inactive
DU-145
  growth inhibition (GI): inactive
LOX IMVI
  growth inhibition (GI): inactive
NCI-H23
  growth inhibition (GI): inactive
T47D
  growth inhibition (GI): inactive
HCT-116
  growth inhibition (GI): inactive
SR
  inhibition of growth at 10 µM: 10%
MOLT-4
  inhibition of growth at 10 µM: 1%
SW-620
  growth inhibition (GI): inactive
ACHN
  growth inhibition (GI): inactive
KM12
  growth inhibition (GI): inactive
SF-295
  growth inhibition (GI): inactive
COLO 205
  growth inhibition (GI): inactive
SK-MEL-2
  growth inhibition (GI): inactive
HL-60(TB)
  inhibition of growth at 10 µM: 3%
SK-MEL-5
  growth inhibition (GI): inactive
CCRF-CEM
  inhibition of growth at 10 µM: 8%
TK-10
  growth inhibition (GI): inactive
Carbonic anhydrase 9
  pKi: 7.18
NCI-H460
  growth inhibition (GI): inactive
MDA-MB-468
  growth inhibition (GI): inactive
HOP-62
  growth inhibition (GI): inactive
MDA-MB-435
  growth inhibition (GI): inactive
OVCAR-8
  growth inhibition (GI): inactive
OVCAR-5
  growth inhibition (GI): inactive
SF-268
  growth inhibition (GI): inactive
NCI/ADR-RES
  growth inhibition (GI): inactive
786-0
  growth inhibition (GI): inactive
EKVX
  growth inhibition (GI): inactive
RXF 393
  growth inhibition (GI): inactive
NCI-H522
  inhibition of growth at 10 µM: 1%
[2]
  inhibition of growth at 10 µM: 10%
M14
  growth inhibition (GI): inactive
HCT-15
  growth inhibition (GI): inactive
CAKI-1
  growth inhibition (GI): inactive
RPMI-8226; RPMI-8226, 48 h, read-out: GI
  inhibition of growth at 10 µM: 2%
A549
  growth inhibition (GI): inactive
UACC-62
  inhibition of growth at 10 µM: 4%
SK-OV-3
  growth inhibition (GI): inactive
SN12C
  growth inhibition (GI): inactive
U-251
  inhibition of growth at 10 µM: 6%
OVCAR-3
  growth inhibition (GI): inactive
MCF7
  growth inhibition (GI): inactive
BT-549
  growth inhibition (GI): inactive
Hs-578T
  growth inhibition (GI): inactive
NCI-H226
  growth inhibition (GI): inactive
SNB-75
  inhibition of growth at 10 µM: 7%
SNB-19
  growth inhibition (GI): inactive
MDA-MB-231; MDA-MB-231, 48 h, read-out: GI
  inhibition of growth at 10 µM: 1%
SK-MEL-28
  growth inhibition (GI): inactive
HT-29
  growth inhibition (GI): inactive
HOP-92
  inhibition of growth at 10 µM: 20%
